Assay results published in the supplement of paper PMC12420376.

What was measured:
[1] = test system: KURAMOCHI; experiment: drug sensitivity score (DSS2) on cancer cell count; higher = more sensitive; extreme values may be limits of the assay; conditions: 72 h
In short: (§1)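 Cancer cell counts came from 10× images (4 fields) of fixed cells immunostained for CK8/18 with Hoechst. The ovarian cancer cells had been grown alone or in 1:1 direct co-culture with lung or skin fibroblasts on 384-well plates pre-spotted acoustically with 528 approved and investigational compounds at 5 concentrations, then treated for 72 h. Breeze was used to derive a drug sensitivity score from logistic fits of the data.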

[2] = test system: OVCAR8; experiment: as above; conditions: 72 h
In short: as §1

[3] = co-cultured fibroblast: BJHTERT
[4] = co-cultured fibroblast: none (monoculture)

With `COc1ccc(C[C@H](NC(=O)[C@H](C)NC(=O)CN2CCOCC2)C(=O)N[C@@H](Cc2ccccc2)C(=O)C2(C)CO2)cc1` (stereo in doubt) [ONX-0914] the drug sensitivity score [1, 3] was 15.7 DSS, the drug sensitivity score ([1]; co-cultured fibroblast: WI38) was 17.7 DSS and the drug sensitivity score [1, 4] was 17.6 DSS. The drug sensitivity score [2, 3] was 8.4 DSS, the drug sensitivity score ([2]; co-cultured fibroblast: WI38) was 16.1 DSS and the drug sensitivity score [2, 4] was 17.8 DSS.
`Cn1cc(C[C@@H](N)C(=O)O)c2ccccc21` [1-methyl-D-tryptophan] showed a drug sensitivity score [1, 3] of 0 DSS, a drug sensitivity score ([1]; co-cultured fibroblast: WI38) of 0 DSS and a drug sensitivity score [1, 4] of 10.3 DSS. For the same molecule, the drug sensitivity score [2, 3] was 0 DSS, the drug sensitivity score ([2]; co-cultured fibroblast: WI38) was 0 DSS and the drug sensitivity score [2, 4] was 0 DSS.
`CC/C(=C(\c1ccc(O)cc1)c1ccc(OCCN(C)C)cc1)c1ccccc1` [4-hydroxytamoxifen] showed a drug sensitivity score [1, 3] of 4.8 DSS, a drug sensitivity score ([1]; co-cultured fibroblast: WI38) of 1.8 DSS and a drug sensitivity score [1, 4] of 2.2 DSS. It also gave a drug sensitivity score [2, 3] of 0.2 DSS, a drug sensitivity score ([2]; co-cultured fibroblast: WI38) of 0 DSS and a drug sensitivity score [2, 4] of 4.9 DSS.
`Nc1ncnc2c1nc(N)n2[C@@H]1O[C@H](CO)[C@@H](O)[C@H]1O` [8-amino-adenosine] was tested, and the drug sensitivity score [1, 3] was 21 DSS, the drug sensitivity score ([1]; co-cultured fibroblast: WI38) was 20.3 DSS and the drug sensitivity score [1, 4] was 21.4 DSS. It also gave a drug sensitivity score [2, 3] of 17.9 DSS, a drug sensitivity score ([2]; co-cultured fibroblast: WI38) of 16.5 DSS and a drug sensitivity score [2, 4] of 19.5 DSS.
`Nc1ncnc2c1nc(Cl)n2[C@@H]1O[C@H](CO)[C@@H](O)[C@H]1O` [8-chloro-adenosine] gave a drug sensitivity score [1, 3] of 10.1 DSS, a drug sensitivity score ([1]; co-cultured fibroblast: WI38) of 10.4 DSS and a drug sensitivity score [1, 4] of 10.3 DSS. It also gave a drug sensitivity score [2, 3] of 12.9 DSS, a drug sensitivity score ([2]; co-cultured fibroblast: WI38) of 9.9 DSS and a drug sensitivity score [2, 4] of 16.9 DSS.
`COc1cc2c(cc1OCCCN1CCCC1)N=C(N)C21CCC1` [A-366] showed a drug sensitivity score [1, 3] of 2.1 DSS, a drug sensitivity score ([1]; co-cultured fibroblast: WI38) of 0.5 DSS and a drug sensitivity score [1, 4] of 0 DSS. It also gave a drug sensitivity score [2, 3] of 4.1 DSS, a drug sensitivity score ([2]; co-cultured fibroblast: WI38) of 0 DSS and a drug sensitivity score [2, 4] of 0.3 DSS.
In the case of `COc1ccc(S(=O)(=O)Nc2cccnc2Nc2ccc(O)cc2)cc1` [ABT-751], the drug sensitivity score [1, 3] is reported as 14.5 DSS, the drug sensitivity score ([1]; co-cultured fibroblast: WI38) is reported as 17.3 DSS and the drug sensitivity score [1, 4] is reported as 17.9 DSS. It also gave a drug sensitivity score [2, 3] of 18.7 DSS, a drug sensitivity score ([2]; co-cultured fibroblast: WI38) of 15.9 DSS and a drug sensitivity score [2, 4] of 19.3 DSS.
Molecule `C[C@H](Nc1ncnc2[nH]cnc12)c1cc2ccc(F)cc2nc1-c1ccccn1` [AMG319] has a drug sensitivity score [1, 3] of 1.2 DSS, a drug sensitivity score ([1]; co-cultured fibroblast: WI38) of 0 DSS and a drug sensitivity score [1, 4] of 0 DSS. For the same molecule, the drug sensitivity score [2, 3] was 0 DSS, the drug sensitivity score ([2]; co-cultured fibroblast: WI38) was 5.8 DSS and the drug sensitivity score [2, 4] was 0 DSS.
Work on `CC(C)[C@@H](CS(=O)(=O)C(C)C)N1C(=O)[C@@](C)(CC(=O)O)C[C@H](c2cccc(Cl)c2)[C@H]1c1ccc(Cl)cc1` [AMG-232] yielded a drug sensitivity score [1, 3] of 0.2 DSS, a drug sensitivity score ([1]; co-cultured fibroblast: WI38) of 0 DSS and a drug sensitivity score [1, 4] of 0.5 DSS. For the same molecule, the drug sensitivity score [2, 3] was 1.6 DSS, the drug sensitivity score ([2]; co-cultured fibroblast: WI38) was 0 DSS and the drug sensitivity score [2, 4] was 0.7 DSS.
`COCCOc1cnc2ccn([C@H](C)c3nnc4c(F)cc(-c5cnn(C)c5)cn34)c(=O)c2c1` [AMG-337] showed a drug sensitivity score [1, 3] of 0 DSS, a drug sensitivity score ([1]; co-cultured fibroblast: WI38) of 0 DSS and a drug sensitivity score [1, 4] of 0 DSS. For the same molecule, the drug sensitivity score [2, 3] was 0 DSS, the drug sensitivity score ([2]; co-cultured fibroblast: WI38) was 0 DSS and the drug sensitivity score [2, 4] was 0 DSS.
For `CC1CCC(n2c3cnccc3c3cnc(Nc4ccc5c(n4)CCN(C(=O)CO)C5)nc32)CC1` (stereo unspecified) [AMG-925], the drug sensitivity score [1, 3] was 0 DSS, the drug sensitivity score ([1]; co-cultured fibroblast: WI38) was 2.2 DSS and the drug sensitivity score [1, 4] was 0 DSS. The drug sensitivity score [2, 3] was 0 DSS, the drug sensitivity score ([2]; co-cultured fibroblast: WI38) was 0 DSS and the drug sensitivity score [2, 4] was 0 DSS.
`COCC1(CO)C(=O)C2CCN1CC2` (stereo unspecified) [APR-246] was tested, and the drug sensitivity score [1, 3] was 0 DSS, the drug sensitivity score ([1]; co-cultured fibroblast: WI38) was 0 DSS and the drug sensitivity score [1, 4] was 0 DSS. It also gave a drug sensitivity score [2, 3] of 0 DSS, a drug sensitivity score ([2]; co-cultured fibroblast: WI38) of 0 DSS and a drug sensitivity score [2, 4] of 0 DSS.
`CC(C)[C@H](C(=O)Nc1ccc(C(=O)NO)cc1)c1ccccc1` [AR-42] gave a drug sensitivity score [1, 3] of 14 DSS, a drug sensitivity score ([1]; co-cultured fibroblast: WI38) of 15.8 DSS and a drug sensitivity score [1, 4] of 12.3 DSS. The drug sensitivity score [2, 3] was 17.8 DSS, the drug sensitivity score ([2]; co-cultured fibroblast: WI38) was 15.3 DSS and the drug sensitivity score [2, 4] was 18.8 DSS.
Molecule `Cc1sc2c(c1C)C(c1ccc(Cl)cc1)=N[C@@H](CC(=O)Nc1ccc(OCCOCCOCCOCCNc3cccc4c3C(=O)N(C3CCC(=O)NC3=O)C4=O)cc1)c1nnc(C)n1-2` (stereo partly specified) [ARV-825] has a drug sensitivity score [1, 3] of 6.9 DSS, a drug sensitivity score ([1]; co-cultured fibroblast: WI38) of 7.9 DSS and a drug sensitivity score [1, 4] of 4.5 DSS. The drug sensitivity score [2, 3] was 19.6 DSS, the drug sensitivity score ([2]; co-cultured fibroblast: WI38) was 14.7 DSS and the drug sensitivity score [2, 4] was 18.8 DSS.
Work on `COc1cc(N2CCC(N3CCN(C)CC3)CC2)ccc1Nc1ncnc(Nc2ccccc2S(=O)(=O)C(C)C)n1` [ASP3026] yielded a drug sensitivity score [1, 3] of 7.7 DSS, a drug sensitivity score ([1]; co-cultured fibroblast: WI38) of 2 DSS and a drug sensitivity score [1, 4] of 5.7 DSS. The drug sensitivity score [2, 3] was 8.6 DSS, the drug sensitivity score ([2]; co-cultured fibroblast: WI38) was 3.1 DSS and the drug sensitivity score [2, 4] was 4.7 DSS.
`O=C(NC1CCNCC1)c1n[nH]cc1NC(=O)c1c(Cl)cccc1Cl` [AT7519] showed a drug sensitivity score [1, 3] of 17.3 DSS, a drug sensitivity score ([1]; co-cultured fibroblast: WI38) of 18.8 DSS and a drug sensitivity score [1, 4] of 19.6 DSS. For the same molecule, the drug sensitivity score [2, 3] was 21.6 DSS, the drug sensitivity score ([2]; co-cultured fibroblast: WI38) was 17.5 DSS and the drug sensitivity score [2, 4] was 19.9 DSS.
With `O=C(Nc1c[nH]nc1-c1nc2ccc(CN3CCOCC3)cc2[nH]1)NC1CC1` [AT9283] the drug sensitivity score [1, 3] was 15.8 DSS, the drug sensitivity score ([1]; co-cultured fibroblast: WI38) was 16 DSS and the drug sensitivity score [1, 4] was 19.6 DSS. The drug sensitivity score [2, 3] was 10.7 DSS, the drug sensitivity score ([2]; co-cultured fibroblast: WI38) was 14.2 DSS and the drug sensitivity score [2, 4] was 9 DSS.
`CN[C@@H](C)C(=O)N[C@H]1CN(C(=O)CC(C)C)CC[C@H]2CC[C@@H](C(=O)NC(c3ccccc3)c3ccccc3)N2C1=O` [AT-406] was tested, and the drug sensitivity score [1, 3] was 0 DSS, the drug sensitivity score ([1]; co-cultured fibroblast: WI38) was 0 DSS and the drug sensitivity score [1, 4] was 0 DSS. It also gave a drug sensitivity score [2, 3] of 10 DSS, a drug sensitivity score ([2]; co-cultured fibroblast: WI38) of 9.9 DSS and a drug sensitivity score [2, 4] of 9.7 DSS.
`CC[C@H](CC#N)OC(=O)N[C@@H](C)c1cccc(NC(=O)Nc2ccc(-c3cnco3)c(OC)c2)c1` [AVN944] showed a drug sensitivity score [1, 3] of 12.7 DSS, a drug sensitivity score ([1]; co-cultured fibroblast: WI38) of 17.5 DSS and a drug sensitivity score [1, 4] of 19.4 DSS. For the same molecule, the drug sensitivity score [2, 3] was 22.4 DSS, the drug sensitivity score ([2]; co-cultured fibroblast: WI38) was 15 DSS and the drug sensitivity score [2, 4] was 26.6 DSS.
In the case of `COc1cc(N2CCN(C)CC2)ccc1Nc1nccc(-c2cn(C)c3cnccc23)n1` [AZ191], the drug sensitivity score [1, 3] is reported as 5.9 DSS, the drug sensitivity score ([1]; co-cultured fibroblast: WI38) is reported as 2.3 DSS and the drug sensitivity score [1, 4] is reported as 6.9 DSS. For the same molecule, the drug sensitivity score [2, 3] was 3.3 DSS, the drug sensitivity score ([2]; co-cultured fibroblast: WI38) was 2 DSS and the drug sensitivity score [2, 4] was 1.3 DSS.
Molecule `COc1cc(OC2CCN(C)CC2)ccc1Nc1ncc2c(n1)n(C1CCCC1)c(=O)n2C` [AZ 3146] has a drug sensitivity score [1, 3] of 1.8 DSS, a drug sensitivity score ([1]; co-cultured fibroblast: WI38) of 3.2 DSS and a drug sensitivity score [1, 4] of 1.5 DSS. For the same molecule, the drug sensitivity score [2, 3] was 8.3 DSS, the drug sensitivity score ([2]; co-cultured fibroblast: WI38) was 9.6 DSS and the drug sensitivity score [2, 4] was 4.3 DSS.
Molecule `CN(C)CCCOc1ccc(-c2ccc3ncc4c(c3c2)n(C2CCOCC2)c(=O)n4C)cn1` [AZD0156] has a drug sensitivity score [1, 3] of 2.5 DSS, a drug sensitivity score ([1]; co-cultured fibroblast: WI38) of 1.4 DSS and a drug sensitivity score [1, 4] of 0.7 DSS. It also gave a drug sensitivity score [2, 3] of 6.4 DSS, a drug sensitivity score ([2]; co-cultured fibroblast: WI38) of 6.8 DSS and a drug sensitivity score [2, 4] of 0.5 DSS.
With `N[C@@H]1CCCN(c2c(/C=C3\SC(=O)NC3=O)cccc2-c2ccccc2)C1` [AZD1208] the drug sensitivity score [1, 3] was 0 DSS, the drug sensitivity score ([1]; co-cultured fibroblast: WI38) was 1.7 DSS and the drug sensitivity score [1, 4] was 1.3 DSS. The drug sensitivity score [2, 3] was 0 DSS, the drug sensitivity score ([2]; co-cultured fibroblast: WI38) was 0 DSS and the drug sensitivity score [2, 4] was 1.8 DSS.
`Cc1cc(Nc2nc(N[C@@H](C)c3ncc(F)cn3)ncc2Cl)[nH]n1` [AZD1480] was tested, and the drug sensitivity score [1, 3] was 0.1 DSS, the drug sensitivity score ([1]; co-cultured fibroblast: WI38) was 0.7 DSS and the drug sensitivity score [1, 4] was 0 DSS. For the same molecule, the drug sensitivity score [2, 3] was 0.4 DSS, the drug sensitivity score ([2]; co-cultured fibroblast: WI38) was 0 DSS and the drug sensitivity score [2, 4] was 0.4 DSS.
Work on `C=CCn1c(=O)c2cnc(Nc3ccc(N4CCN(C)CC4)cc3)nc2n1-c1cccc(C(C)(C)O)n1` [AZD1775] yielded a drug sensitivity score [1, 3] of 15.3 DSS, a drug sensitivity score ([1]; co-cultured fibroblast: WI38) of 12.7 DSS and a drug sensitivity score [1, 4] of 13.2 DSS. The drug sensitivity score [2, 3] was 21 DSS, the drug sensitivity score ([2]; co-cultured fibroblast: WI38) was 14.9 DSS and the drug sensitivity score [2, 4] was 18.4 DSS.
In the case of `COc1cc2ncnc(Nc3cccc(Cl)c3F)c2cc1OC(=O)N1CCN(C)C[C@H]1C` [AZD3759], the drug sensitivity score [1, 3] is reported as 1.1 DSS, the drug sensitivity score ([1]; co-cultured fibroblast: WI38) is reported as 0 DSS and the drug sensitivity score [1, 4] is reported as 0 DSS. It also gave a drug sensitivity score [2, 3] of 0.8 DSS, a drug sensitivity score ([2]; co-cultured fibroblast: WI38) of 3.6 DSS and a drug sensitivity score [2, 4] of 0 DSS.
